Measurements from US20240301409A1, “Chemically Modified Small Activating RNA” (RACTIGEN THERAPEUTICS, priority 2021, published 2024).

Test system: p21 gene
Assay: p21 mRNA expression by RT-qPCR in Ku-7-LG cells
Assay type: cell-based, human
Conditions: 10 nM
Method: Ku-7-LG and T24 cells were transfected with the indicated saRNA at a final concentration of 10 nM for 3 days. After transfection, the RNA was extracted with the Qiagen RNeasy kit. After reverse transcription, the ABI 7500 fast real-time PCR system was used for qPCR amplification. The GAPDH gene was amplified as an internal reference. […] Dashed line indicates duplex Rag1-40 with no chemical modification in comparison, and the values above the line indicate stronger activity. The control was blank transfection without oligonucleotide. dsCon2 is transfected with a double-stranded scramble RNA. The value of the ordinate represents the mean±SD of 2 repeated treatments.
The control and dsCon2 were blank transfection and scramble dsRNA transfection, respectively. The values in the ordinate represent the mean±SD of 2 repeated treatments.
Human bladder cancer cells Ku-7-LG (ATCC), J82 (ATCC) and T24 (ATCC) were cultured in McCoy medium (Gibco) comprising 10% calf serum (Sigma-Aldrich) and 1% penicillin/Streptomycin (Gibco). Cells were cultured at 37° C. under 5% CO2. Ku-7-LG, J82 and T24 cells were plated into 12-well plates at 10×10^4 cells per well, transfected with the small RNA at a concentration of 10 nM (unless otherwise specified) for three days, using RNAiMax (Invitrogen, Carlsbad, CA) according to the manufacturer's instructions. Two replicate wells were set for each treatment.
After transfection, the medium was discarded and to each well 500 μl cell lysate was added and incubated at room temperature for 5 minutes. RNA was extracted with the Qiagen RNeasy kit, and after reverse transcription, qPCR analysis was performed on the ABI 7500 Fast Real-time PCR system (Applied Biosystems). Each sample was amplified in 3 replicate wells.
The PCR reaction conditions are: 95° C. for 30 seconds, 95° C. for 5 seconds, 60° C. for 30 seconds, and 40 cycles of amplification. The GAPDH gene was amplified as an internal reference at the same time. p21 was amplified with the p21F1/R1 primer pair, and the specific sequences of the amplification primers are shown in Table 1.
In order to calculate the expression value (Erel) of p21 (target gene) of a saRNA transfection sample relative to the control treatment, Formula 1 is used to input the Ct values of the target gene and the internal reference gene for calculation.
wherein, CtTm is the Ct value of the target gene from the control treatment sample; CtTs is the Ct value of the target gene from the saRNA treated sample; CtRm is the Ct value of the internal reference gene from the control treatment sample; and CtRs is the Ct value of the internal reference gene from the saRNA treated sample.
The main purpose of introducing chemical modifications to regulatory oligonucleotides of a gene is to improve their pharmaceutical properties, including enhancing in vivo stability and mitigating off-target effects (e.g., sequence-dependent targeting of unrelated genes, sequence-dependent or independent immune stimulation), while maintaining their gene regulatory capacity (gene knockdown or activation). To assess the effect of chemical modification on the RNAa activity of saRNA on the p21 gene, 10 nM unmodified (Rag1-40) and modified (Rag1-40-1 to Rag1-40-34) duplexes were transfected into Ku-7-LG and T24 cells, respectively. After 72 hours, the mRNA expression level of p21 was assessed by RT-qPCR. All duplexes induced p21 mRNA expression in all […] at least double that of the control.
In order to further evaluate the expression level of p21 mRNA after the different durations of treatment by the chemically modified saRNA duplexes, two saRNAs (RAG1-40-31 and RAG1-40-53) were randomly selected from the above chemically modified saRNA duplexes for detection. RAG1-40-31 and RAG1-40-53 were transfected into Ku-7-LG and T24 cells at a final concentration of 10 nM, for 1, 2, 3, 4, 7 and 9 days, respectively. Each treatment was set up in duplicate. […]

Substance: RAG1-40-31: saRNA duplex: sense fCfCAACUCAUUCUCCAAG*U*C (SEQ ID NO 16); antisense U*A*fCfUfUGGAGAAfUGAGfUfUGG*fC*A (SEQ ID NO 12) (sense CCAACUCAUUCUCCAAGUC; antisense UACUUGGAGAAUGAGUUGGCA; 2'-F and phosphorothioate modifications; modified_base (1)..(2) (1,2)=2′-fluoro; modified_base (17)..(19) (17,18,19)=phosphorothioate (PS) backbone modification; modified_base (2)..(21) (2,3,19,20,21)=phosphorothioate (PS) backbone modification; modified_base (3)..(20) (3,4,5,12,16,17,20)=2′-fluoro)
- increase of expression level of p21 mRNA compared with the control group (1 day): 1.3 fold
- increase of expression level of p21 mRNA compared with the control group (2 days): 11.4 fold
- increase of expression level of p21 mRNA compared with the control group (3 days): 8.7 fold
- increase of expression level of p21 mRNA compared with the control group (4 days): 6.1 fold
- increase of expression level of p21 mRNA compared with the control group (7 days): 2.6 fold
- increase of expression level of p21 mRNA compared with the control group (9 days): 3.8 fold
